Assay results taken from publication PMC4664966, “Discovery and characterization of novel inhibitors of the sodium-coupled citrate transporter (NaCT or SLC13A5)” (Scientific Reports, 2015).
Converted amounts (≈) assume the structure as drawn.

Assays:
[1] = target: Monoacylglycerol acyltransferase 3 (MGAT3) (Homo sapiens, UniProt Q86VF5); test: Selectivity data (Table S1); type: biochemical
[2] = target: Adrenergic receptor, beta-1 (ADRB1) (Homo sapiens, UniProt P08588); test: Selectivity data (Table S1); type: binding
[3] = target: T1, NaDC3 (SLC13A3) (Homo sapiens, UniProt Q8WWT9); test: Inhibition of citrate or succinate uptake in HEKNaDC3 cells; type: cell-based
T1 construct: host or cells: HEK-293, transient (Fugene HD)
T1 sequence (Q8WWT9 1-602): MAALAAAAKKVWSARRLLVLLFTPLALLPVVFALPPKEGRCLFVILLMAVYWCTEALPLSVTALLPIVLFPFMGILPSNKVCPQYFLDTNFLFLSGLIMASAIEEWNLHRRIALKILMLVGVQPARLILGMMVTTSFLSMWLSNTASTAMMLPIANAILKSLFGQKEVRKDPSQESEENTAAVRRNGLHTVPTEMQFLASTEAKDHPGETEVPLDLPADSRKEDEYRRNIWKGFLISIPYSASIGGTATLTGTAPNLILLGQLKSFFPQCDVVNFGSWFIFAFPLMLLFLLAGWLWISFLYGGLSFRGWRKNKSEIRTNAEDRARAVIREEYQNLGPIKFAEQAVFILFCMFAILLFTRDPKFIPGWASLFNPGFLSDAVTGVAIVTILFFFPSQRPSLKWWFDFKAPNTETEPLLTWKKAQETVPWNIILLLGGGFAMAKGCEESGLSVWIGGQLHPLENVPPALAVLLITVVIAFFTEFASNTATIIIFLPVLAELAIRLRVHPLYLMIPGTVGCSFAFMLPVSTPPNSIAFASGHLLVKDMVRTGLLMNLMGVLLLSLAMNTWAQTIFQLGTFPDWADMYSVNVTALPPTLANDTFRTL
Source text: (§1) Protocols to generate the stable cell line overexpressing NaCT or cell transfection with SLC13A2 or SLC13A3 can be found in the supporting information. HEK-293 cells stably transfected with the human sodium Citrate transporter SLC13A5 or transiently transfected with the human SLC13A2 or SLC13A3 transporter were removed from the flasks with dissociation buffer and re-suspended in an equal volume of growth media (DMEM, High Glucose supplemented with 10% heat inactivated fetal bovine serum and 500 μg/ml Geneticin). For the transient transfections, Geneticin was eliminated from the media. Cell suspensions were centrifuged at 1,000 rpm for approximately 5 minutes. Resulting cell pellets were re-suspended in growth media and placed in a 37 °C water bath for approximately 10 minutes prior to a final spin at 1,000 rpm. Following this spin the resulting cell pellets were re-suspended in assay buffer, 142 mM NaCl (or 142 mM choline chloride), 5 mM KCl, 1.2 mM MgSO4, 1.5 mM CaCl, 5 mM glucose and 25 mM HEPES pH 7.4. Cell suspensions were counted and the concentration adjusted as needed with assay buffer to 2e[6] viable cells /mL. 20 μL of cell suspension were added to 384-well cyotstar-T plates followed by the addition of 5 μL of 10× concentration of compound. Cells and compound were incubated at 37 °C for approximately 30 minutes prior to the addition of 25 μL of 300 μM citric acid (16 μM radiolabeled [^14C]-citric acid and 284 μM cold citric acid) to make a 150 μM final concentration of citric acid or 21 μM [^14C]-succinic acid. After substrate addition, the uptake of radioactivity was monitored on Perkin Elmer Microbeta plate reader. Data from reads between 45–90 minutes was used to assess the ability of test compounds to inhibit the uptake of citric or succinic acid. […]
(§2) were plated, and incubated for 48 hours. Following the incubation, NaDC1 and NaDC3 assays were executed identical to the procedure for NaCT. […]
(§3) The solution was heated to reflux until the total volume was reduced to ~25 mL. […]

[4] = target: Diacylglycerol acyltransferase 1 (DGAT1) (Homo sapiens, UniProt O75907); test: Selectivity data (Table S1); type: biochemical
[5] = Aqueous solubility; type: physicochemical; settings: aqueous medium at pH 7.4, pH 7.4, aqueous buffer; read-out: Solubility7.4
[6] = target: ATP-binding cassette, sub-family B, member 11 (ABCB11) (Homo sapiens, UniProt O95342); test: Selectivity data (Table S1)
[7] = target: Histamine receptor 2 (H2) (Homo sapiens, UniProt P25021); test: Selectivity data (Table S1); type: binding
[8] = pKa; type: physicochemical
[9] = target: Dopamine receptor 1 (D1) (Homo sapiens, UniProt P21728); test: Selectivity data (Table S1); type: binding
[10] = target: Monoacylglycerol acyltransferase 1 (MGAT1) (Homo sapiens, UniProt Q96PD6); test: Selectivity data (Table S1); type: biochemical
[11] = target: T2, NaDC1 (SLC13A2) (Homo sapiens, UniProt Q13183); test: Inhibition of citrate or succinate uptake in HEKNaDC1 cells; type: cell-based
T2 construct: host or cells: HEK-293, transient (Fugene HD)
T2 sequence (Q13183 1-592): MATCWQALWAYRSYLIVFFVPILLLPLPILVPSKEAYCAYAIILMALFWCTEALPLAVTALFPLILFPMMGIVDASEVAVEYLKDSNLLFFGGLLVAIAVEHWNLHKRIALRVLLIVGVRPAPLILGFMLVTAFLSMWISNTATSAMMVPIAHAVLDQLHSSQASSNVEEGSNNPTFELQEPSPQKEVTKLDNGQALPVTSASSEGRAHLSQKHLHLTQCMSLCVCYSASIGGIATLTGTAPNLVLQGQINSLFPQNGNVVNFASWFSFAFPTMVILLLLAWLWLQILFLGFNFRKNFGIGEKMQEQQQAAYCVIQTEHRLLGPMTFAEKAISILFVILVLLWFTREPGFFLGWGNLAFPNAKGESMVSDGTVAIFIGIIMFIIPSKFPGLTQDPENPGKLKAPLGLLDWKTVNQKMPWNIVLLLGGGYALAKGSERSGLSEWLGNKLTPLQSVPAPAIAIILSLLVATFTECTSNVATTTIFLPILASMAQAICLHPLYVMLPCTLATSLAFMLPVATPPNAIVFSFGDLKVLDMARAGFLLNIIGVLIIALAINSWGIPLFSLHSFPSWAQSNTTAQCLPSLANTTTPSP
Source text: as §1, §2, §3

[12] = compound 4: mean of 2 replicates

ATP-binding cassette, sub-family B, member 11 (ABCB11), sequence (O95342 whole entry, species assumed): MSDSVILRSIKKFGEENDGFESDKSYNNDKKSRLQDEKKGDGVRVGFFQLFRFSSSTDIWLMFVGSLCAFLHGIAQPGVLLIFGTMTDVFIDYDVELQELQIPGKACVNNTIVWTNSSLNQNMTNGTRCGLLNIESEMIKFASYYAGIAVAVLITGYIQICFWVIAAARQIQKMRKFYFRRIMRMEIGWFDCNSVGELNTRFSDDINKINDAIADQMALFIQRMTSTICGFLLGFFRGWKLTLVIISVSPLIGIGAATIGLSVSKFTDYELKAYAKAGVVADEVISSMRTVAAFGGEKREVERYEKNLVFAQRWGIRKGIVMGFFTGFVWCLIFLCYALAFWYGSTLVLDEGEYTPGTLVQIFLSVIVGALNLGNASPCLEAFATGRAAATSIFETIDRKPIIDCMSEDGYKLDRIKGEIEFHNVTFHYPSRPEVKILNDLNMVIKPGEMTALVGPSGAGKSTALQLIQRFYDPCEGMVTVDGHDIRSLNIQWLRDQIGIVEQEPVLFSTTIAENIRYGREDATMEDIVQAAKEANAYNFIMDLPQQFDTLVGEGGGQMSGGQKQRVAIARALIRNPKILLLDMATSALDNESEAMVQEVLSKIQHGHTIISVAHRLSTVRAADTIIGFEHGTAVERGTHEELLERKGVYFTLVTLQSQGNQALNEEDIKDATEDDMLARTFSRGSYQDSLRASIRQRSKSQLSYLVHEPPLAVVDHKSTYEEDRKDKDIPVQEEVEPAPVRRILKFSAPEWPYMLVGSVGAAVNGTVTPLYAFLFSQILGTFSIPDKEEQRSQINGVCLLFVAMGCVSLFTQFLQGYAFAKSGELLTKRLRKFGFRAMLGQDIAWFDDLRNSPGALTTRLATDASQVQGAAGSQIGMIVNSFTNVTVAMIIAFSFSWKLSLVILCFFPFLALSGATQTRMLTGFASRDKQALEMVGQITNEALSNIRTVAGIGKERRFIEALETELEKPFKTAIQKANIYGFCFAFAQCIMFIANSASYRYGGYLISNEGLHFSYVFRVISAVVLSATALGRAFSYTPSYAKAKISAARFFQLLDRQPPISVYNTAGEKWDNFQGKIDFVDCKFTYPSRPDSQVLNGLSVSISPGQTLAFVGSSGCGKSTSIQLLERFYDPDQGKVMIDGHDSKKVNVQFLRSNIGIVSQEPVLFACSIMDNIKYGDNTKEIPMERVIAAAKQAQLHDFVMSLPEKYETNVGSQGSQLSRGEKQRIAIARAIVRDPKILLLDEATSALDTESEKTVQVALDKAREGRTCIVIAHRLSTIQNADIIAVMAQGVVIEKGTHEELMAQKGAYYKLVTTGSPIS
Monoacylglycerol acyltransferase 3 (MGAT3), sequence (Q86VF5 whole entry): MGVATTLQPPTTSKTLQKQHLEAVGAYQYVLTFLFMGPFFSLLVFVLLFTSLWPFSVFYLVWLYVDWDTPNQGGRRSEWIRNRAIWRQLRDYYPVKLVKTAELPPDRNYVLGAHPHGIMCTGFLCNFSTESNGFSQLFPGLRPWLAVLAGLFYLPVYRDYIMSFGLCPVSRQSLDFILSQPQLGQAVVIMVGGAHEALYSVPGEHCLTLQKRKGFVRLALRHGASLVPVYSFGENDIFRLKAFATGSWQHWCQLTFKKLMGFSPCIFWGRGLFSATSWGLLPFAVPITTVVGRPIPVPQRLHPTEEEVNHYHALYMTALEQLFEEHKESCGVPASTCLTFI
Monoacylglycerol acyltransferase 1 (MGAT1), sequence (Q96PD6 whole entry): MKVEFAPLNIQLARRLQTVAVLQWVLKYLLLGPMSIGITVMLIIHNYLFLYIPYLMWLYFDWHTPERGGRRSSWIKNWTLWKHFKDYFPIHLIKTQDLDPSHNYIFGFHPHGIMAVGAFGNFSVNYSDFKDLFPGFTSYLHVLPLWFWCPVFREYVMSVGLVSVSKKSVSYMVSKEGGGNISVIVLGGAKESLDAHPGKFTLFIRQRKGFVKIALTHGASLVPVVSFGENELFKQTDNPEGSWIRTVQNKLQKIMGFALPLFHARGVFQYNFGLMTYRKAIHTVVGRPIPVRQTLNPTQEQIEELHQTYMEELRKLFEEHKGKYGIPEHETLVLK
Dopamine receptor 1 (D1), sequence (P21728 whole entry): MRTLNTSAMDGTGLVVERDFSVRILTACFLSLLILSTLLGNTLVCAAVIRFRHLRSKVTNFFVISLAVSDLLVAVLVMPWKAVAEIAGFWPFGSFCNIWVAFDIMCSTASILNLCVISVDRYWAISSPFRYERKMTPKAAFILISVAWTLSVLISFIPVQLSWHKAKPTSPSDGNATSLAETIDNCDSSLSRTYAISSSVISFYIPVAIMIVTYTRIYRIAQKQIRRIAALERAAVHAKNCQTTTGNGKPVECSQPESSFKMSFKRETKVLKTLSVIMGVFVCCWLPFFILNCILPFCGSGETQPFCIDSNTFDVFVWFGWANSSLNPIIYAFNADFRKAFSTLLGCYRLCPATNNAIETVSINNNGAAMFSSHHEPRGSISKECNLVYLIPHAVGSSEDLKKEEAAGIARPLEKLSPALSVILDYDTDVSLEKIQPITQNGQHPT
Adrenergic receptor, beta-1 (ADRB1), sequence (P08588 whole entry): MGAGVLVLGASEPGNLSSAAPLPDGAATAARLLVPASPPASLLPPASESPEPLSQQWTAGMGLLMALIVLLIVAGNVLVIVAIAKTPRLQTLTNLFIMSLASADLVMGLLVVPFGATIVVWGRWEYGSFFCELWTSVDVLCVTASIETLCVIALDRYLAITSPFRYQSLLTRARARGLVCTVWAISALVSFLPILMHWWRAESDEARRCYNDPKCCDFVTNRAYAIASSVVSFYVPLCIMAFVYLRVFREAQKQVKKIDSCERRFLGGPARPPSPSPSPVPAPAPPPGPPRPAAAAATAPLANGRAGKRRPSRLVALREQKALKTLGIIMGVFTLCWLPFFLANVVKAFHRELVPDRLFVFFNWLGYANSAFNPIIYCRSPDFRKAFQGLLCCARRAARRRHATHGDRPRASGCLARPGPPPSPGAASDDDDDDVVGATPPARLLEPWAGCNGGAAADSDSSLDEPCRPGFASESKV
Histamine receptor 2 (H2), sequence (P25021 whole entry): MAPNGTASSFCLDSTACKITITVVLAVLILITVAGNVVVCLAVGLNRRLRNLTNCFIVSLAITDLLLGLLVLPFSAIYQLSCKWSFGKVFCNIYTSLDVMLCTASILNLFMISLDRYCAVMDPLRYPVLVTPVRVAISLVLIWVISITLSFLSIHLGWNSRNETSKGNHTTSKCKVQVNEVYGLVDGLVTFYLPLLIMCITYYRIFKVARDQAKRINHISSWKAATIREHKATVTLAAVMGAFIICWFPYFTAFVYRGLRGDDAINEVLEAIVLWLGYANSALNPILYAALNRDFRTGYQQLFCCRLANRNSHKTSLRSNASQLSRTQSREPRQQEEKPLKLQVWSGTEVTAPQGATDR
Diacylglycerol acyltransferase 1 (DGAT1), sequence (O75907 whole entry, species assumed): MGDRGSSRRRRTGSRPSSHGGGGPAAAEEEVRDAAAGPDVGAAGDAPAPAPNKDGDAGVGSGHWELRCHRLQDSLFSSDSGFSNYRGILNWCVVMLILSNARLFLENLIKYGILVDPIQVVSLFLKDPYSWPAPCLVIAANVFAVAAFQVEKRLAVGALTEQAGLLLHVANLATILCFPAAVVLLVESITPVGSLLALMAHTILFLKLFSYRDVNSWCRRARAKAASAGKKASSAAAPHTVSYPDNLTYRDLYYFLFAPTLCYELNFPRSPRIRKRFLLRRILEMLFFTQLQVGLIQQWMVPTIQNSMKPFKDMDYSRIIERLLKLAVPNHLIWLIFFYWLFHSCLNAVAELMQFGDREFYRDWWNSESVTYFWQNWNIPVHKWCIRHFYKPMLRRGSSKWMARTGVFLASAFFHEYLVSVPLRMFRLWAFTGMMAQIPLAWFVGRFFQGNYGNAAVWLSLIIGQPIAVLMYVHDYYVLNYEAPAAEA

SMILES: CC(C)(C)c1ccc(CC[C@@](O)(CC(=O)O)C(=O)O)cc1 [Compound 2]
- IC50 [1]: > 50 µM
- inhibition at 100 µM [2]: < 10%
- inhibition of citrate or succinate uptake, NaDC3 ([3]; HEK-293-derived system overexpressing NaDC3): No measurable inhibition
- IC50 [3, 12]: > 100 µM
- IC50 [4]: > 50 µM
- solubility [5]: 33 mM (≈ 9710 µg/mL)
- IC50 [6]: > 200 µM
- inhibition at 100 µM [7]: < 10%
- pKa [8]: 3.1
- inhibition at 100 µM [9]: < 10%
- IC50 [10]: > 50 µM
- inhibition of citrate or succinate uptake, NaDC1 ([11]; HEK-293-derived system overexpressing NaDC1): No measurable inhibition
- IC50 [11, 12]: > 100 µM
